The test system of assay [1] is carrageenin-induced pedal edema. Put plainly: inhibition of carrageenin-induced pedal edema in rats. Type of assay: in vivo, rats (male Wistar). The following applies: Rattus norvegicus. On the procedure:
The anti-inflammatory activity of a number of representative compounds of the invention was determined by measuring inhibition of carrageenin-induced pedal edema in rats. The procedure used was a modification of the method of Winter et al., Proc. Soc. Exptl. […] The device used for measurement of the paw volume was an adaptation of the water displacement procedure described by Adamkiewicz et al., Can. J. Biochem. Physiol. […] The compounds were studied for their effectiveness in inhibiting the edema caused by the intraplantar injection of 0.05 ml. of a sterile 1.0% solution of carrageenin. […] The compounds were administered orally one hour prior to the injection of the phlogistic substance (carrageenin) into the left hind paw of the rats. At peak swelling time (3 hours), the volume of edema was calculated by differential paw volumes.
(The carrageenan paw model is a standard test of acute inflammation.)

Assay [2] relates to gastric secretion. Put plainly: anti-secretory activity, pylorus-ligated fasting rats (Shay rat procedure). The following applies: for Anti-Secretory Activity (% Reduction of gastric secretion, ml./100 gm.): 50 mg./kg., fasting rats, 4 hours after pylorus ligation, subcutaneous (footnote), intraperitoneal; for anti-secretory activity rather than ulcerogenic properties (in words): rat, in vivo. Type of assay: in vivo. On the procedure: The anti-secretory properties of certain compounds of the invention was determined using the following procedure. The stomachs of fasting rats were ligated at the pylorus (Shay rat procedure) immediately followed by an intraperitoneal injection of 50 mg./kg. of each compound tested. Four hours later the animals were sacrificed, the stomachs removed and the total volume of fluid was measured.
*% Reduction of gastric secretion (ml./100 gm.) after subcutaneous
administration to fasting rats at 50 mg./kg.

For assay [3] the following is noted: U.S. Pat. No. 3,354,164; cited from earlier work.
The mark [4] stands for this setting: oral, one hour before carrageenin, edema at 3 hours, dose which reduced edema formation by 25% or more in 50% of the animals, read-out: Anti-Inflammatory Activity (ED50).
Setting [5] is: po, 3 h, typical ED50 values from the same test, read-out: Anti-Inflammatory Activity (ED50), known antiinflammatory agents.
[6] abbreviates: po, 3 h, read-out: Anti-Inflammatory Activity (ED50), known antiinflammatory agents.

The text below walks through data of patent US3992539A, “S-triazolo-[3,4-a]isoquinolines in treating inflammatory disorders” (Mallinckrodt, Inc., priority 1973, dated 1976).

Structures can show the parent of a compound that is named as a salt. Where two headings read alike, the source gives them in different places.

In general, ED50 refers to the dose at which the effect has come halfway, by size or by number of responders.

Consider `Cc1ccc2ccn3c(C(F)(F)F)nnc3c2c1` [3-Trifluoromethyl-9-methyl-s-triazolo-[3,4-a]-isoquinoline], for which the ED50 in assay [1] (setting [4]) is approximately 160 mg/kg. Moreover, in assay [2], the “Anti-Secretory Activity (% Reduction of gastric secretion, ml./100 gm.)” value was 22% and the “anti-secretory activity rather than ulcerogenic properties (in words)” value was “exhibit anti-secretory activity rather than the ulcerogenic properties”. In the case of `CN1CCN(c2nnc3c4ccccc4c(Cl)cn23)CC1` [3-(N-methylpiperazino)-6-chloro-s-triazolo-[3,4-a]-isoquinoline], in assay [1] (setting [4]), the ED50 is more than 60 mg/kg.

Take `CCCCC1C(=O)N(c2ccccc2)N(c2ccccc2)C1=O` [Phenylbutazone, reference compound]: in assay [1] (setting [5]), the median effective dose (ED50) came to 30 mg/kg. For `CC(=O)Oc1ccccc1C(=O)O` [Aspirin, reference compound], the ED50 in assay [1] (setting [6]) is 224 mg/kg. Consider `Cc1nnc2c3cccc(Cl)c3ccn12.Cl` [3-methyl-7-chloro-s-triazolo-[3,4-a]-isoquinoline hydrochloride], for which, in assay [1] (setting [4]), the ED50 was more than 30 mg/kg. On the same count and under the same terms, with `COc1ccc2ccn3c(C(F)(F)F)nnc3c2c1` [3-Trifluoromethyl-9-methoxy-s-triazolo-[3,4-a]-isoquinoline] the figure was 39 mg/kg. `O=C(O)c1cn2c(C(F)(F)F)nnc2c2ccccc12` [3-Trifluoromethyl-6-carboxy-s-triazolo-[3,4-a]-isoquinoline,Potassium Salt]: in assay [1] (setting [4]), the ED50 is more than 160 mg/kg. Regarding `c1ccc2c(c1)ccn1cnnc21` [s-triazolo-[3,4-a]-isoquinoline], the “coronary vasodilator activity (in words)” value in assay [3] is given as “coronary vasodilators”. For `FC(F)(F)c1nnc2c3cc4c(cc3ccn12)OCO4` [3-Trifluoromethyl-8,9-methylenedioxy-s-triazolo-[3,4-a]-isoquinoline], the ED50 in assay [1] (setting [4]) amounted to 80 mg/kg. On to `COc1ccc2c(ccn3c(C)nnc23)c1` [3-Methyl-8-methoxy-s-triazolo-[3,4-a]-isoquinoline], for which the ED50 in assay [1] (setting [4]) came to 135 mg/kg. As for `Br.Cc1nnc2c3cccc(C#N)c3ccn12` [3-methyl-7-cyano-s-triazolo-[3,4-a]-isoquinoline hydrobromide], in assay [1] (setting [4]), the ED50 is less than 100 mg/kg. In the case of `FC(F)(F)c1nnc2c3cc(Cl)ccc3ccn12` [3-Trifluoromethyl-9-chloro-s-triazolo-[3,4-a]-isoquinoline], the ED50 in assay [1] (setting [4]) was approximately 160 mg/kg. In the case of `CCN(CC)CCNc1nnc2c3ccccc3ccn12` [3-(N,N-diethylaminoethylamino)-s-triazolo-[3,4-a]-isoquinoline], the ED50 in assay [1] (setting [4]) amounted to 172 mg/kg. In assay [2], the “Anti-Secretory Activity (% Reduction of gastric secretion, ml./100 gm.)” value is given as 49% and the “anti-secretory activity rather than ulcerogenic properties (in words)” value is recorded as “exhibit anti-secretory activity rather than the ulcerogenic properties”. Regarding `COc1ccc2ccn3c(C)nnc3c2c1` [3-methyl-9-methoxy-s-triazolo-[3,4-a]-isoquinoline], the ED50 in assay [1] (setting [4]) came out at 115 mg/kg. For `COC(=O)c1cn2c(C(F)(F)F)nnc2c2ccccc12` [3-Trifluoromethyl-6-carbomethoxy-s-triazolo-[3,4-a]-isoquinoline], in assay [2], the “Anti-Secretory Activity (% Reduction of gastric secretion, ml./100 gm.)” value is reported as 6.4% and the “anti-secretory activity rather than ulcerogenic properties (in words)” value is recorded as “exhibit anti-secretory activity rather than the ulcerogenic properties”. In the case of `Cl.c1c2c(cc3c1OCO3)-c1nncn1CC2` [5,6-Dihydro-8,9-methylenedioxy-s-triazolo-[3,4-a]-isoquinoline, Hydrochloride], the ED50 in assay [1] (setting [4]) was approximately 160 mg/kg. For the compound `Cl.Cl.Clc1cccc2c1ccn1c(CN3CCOCC3)nnc21` [7-Chloro-3-morpholinomethyl-s-triazolo-[3,4-a]-isoquinoline (Dihydrochloride)], the ED50 in assay [1] (setting [4]) was approximately 160 mg/kg. Take `c1cn2cnnc2c2cc3c(cc12)OCO3` [8,9-Methylenedioxy-s-triazolo-[3,4-a]-isoquinoline]: the ED50 in assay [1] (setting [4]) is approximately 24 mg/kg. In assay [2], the “Anti-Secretory Activity (% Reduction of gastric secretion, ml./100 gm.)” value came out at 29.5% and the “anti-secretory activity rather than ulcerogenic properties (in words)” value was “exhibit anti-secretory activity rather than the ulcerogenic properties”. For `COc1ccc2c(c1)-c1nnc(C(F)(F)F)n1CC2.Cl` [3-Trifluoromethyl-5,6-dihydro-9-methoxy-s-triazolo-[3,4-a]-isoquinoline Hydrochloride], the ED50 in assay [1] (setting [4]) turned out to be 38 mg/kg.

Regarding `CC(=O)OCC(=O)[C@@]1(O)CC[C@H]2[C@@H]3CCC4=CC(=O)CC[C@]4(C)[C@H]3[C@@H](O)C[C@@]21C` [Hydrocortisone Acetate, reference compound], in assay [1] (setting [5]), the ED50 turned out to be 26 mg/kg. On to `CC(=O)OCc1nnc2c3ccccc3ccn12` [3-Acetoxymethyl-s-triazolo-[3,4-a]-isoquinoline], for which the ED50 in assay [1] (setting [4]) is approximately 100 mg/kg. Consider `COc1ccc2c(c1)c(CC(=O)O)c(C)n2C(=O)c1ccc(Cl)cc1` [Indomethacin, reference compound], for which, in assay [1] (setting [6]), the ED50 came out at 2.4 mg/kg. `C[C@@H]1C[C@H]2[C@@H]3CCC4=CC(=O)C=C[C@]4(C)[C@@]3(F)[C@@H](O)C[C@]2(C)[C@@]1(O)C(=O)CO` [Dexamethasone, reference compound]: the ED50 in assay [1] (setting [6]) was 0.18 mg/kg.

As for `CC(C)Cc1nnc2c3ccccc3ccn12` [3-isobutyl-s-triazolo-[3,4-a]-isoquinoline], the ED50 in assay [1] (setting [4]) came to 130 mg/kg. In assay [2], the “Anti-Secretory Activity (% Reduction of gastric secretion, ml./100 gm.)” value amounted to 16% and the “anti-secretory activity rather than ulcerogenic properties (in words)” value is reported as “exhibit anti-secretory activity rather than the ulcerogenic properties”.
